The values that follow come from US10265321B2, “Uses of salt-inducible kinase (SIK) inhibitors” (Dana-Farber Cancer Institute, Inc., priority 2014, dated 2019).

The target in one test is T1, SIK2 (Homo sapiens, UniProt Q9H0K1).
T1 construct: made in house
Nature of the test: Protein kinase assay ([γ-32P] ATP, phosphocellulose paper) against SIK2. Format: biochemical. Particulars: for remaining activity at 0.1 µM / remaining activity at 1 µM: DMSO set to 100%; for remaining activity at 0.1 µM: read-out: Activity of protein kinase treated with 0.1 μM of I-1 (% control (DMSO)) SIK2; for remaining activity at 1 µM: read-out: Activity of protein kinase treated with 1 μM of I-1 (% control (DMSO)) SIK2; for IC50: read-out: Enzyme Inhibition IC50 SIK2. Here is the method: (§1) Bone marrow-derived DCs were differentiated from C57BL/6 bone marrow in the presence of GM-CSF-conditioned media. CD11c^+ CX3CR1^hi myeloid cells and CD11c^+ CX3CR1^− DCs were isolated from the small intestine lamina propria of Cx3cr1^eGFP/+ mice (12). Detection of cell-surface Thy1.1 expression on BMDCs from 10BiT reporter mice was conducted as described previously (24). Cell viability was estimated by change in total cellular ATP levels using CellTiterGlo assays (Promega). Preparation of recombinant SIK proteins and IC50 measurements were conducted as described previously (21). Total RNA was extracted using a NucleoSpin 96 RNA isolation kit (Macherey-Nagel) followed by cDNA synthesis and multiplex RT-PCR using a microfluidic dynamic array (Fluidigm). The concentrations of TNF-α, IL-6, IL-10, IL-12p40, IL-1β and RANTES in culture supernatants were detected using a FlexSet Cytometric bead array (BD Biosciences). Alternatively, IL-10 secretion was quantified using ELISA (BD Biosciences) or AlphaLISA (PerkinElmer) assays. NO production was estimated based on nitrate content in culture medium using the Greiss reagent.
In another set of experiments, the activities of the SIK inhibitors described herein against SIK were determined according to the methods reported in Hastie et al., Nature Protocols, 2006, 1, 968-971.
This buffer consisted of 50 mM Tris-HCl, pH 7.5, 0.1 mM EGTA, 1 mg ml^−1 bovine serum albumin and 0.1% (vol/vol) 2-mercaptoethanol.
An assay buffer of 500 mM Tris-HCl, pH 7.5, 1 mM EGTA, and 100 mM magnesium acetate was used for the protein kinase assay.
The specific activity of the [γ-^32P] ATP solution was 1×10^5 to 1×10^6 c.p.m. per nmol depending on what was needed to produce an optimal signal/noise ratio. Stocks of nonradioactive (“cold”) ATP were dissolved in 10 mM HEPES, and the pH of the resulting stock solutions was adjusted to 7.4. To measure the concentration of ATP, a sample of such a stock solution was diluted to 20 μM, and the absorbance of the diluted sample was measured at 259 nm. The absorbance of a 20-μM stock solution of ATP at 259 nm was about 0.31. The 1-mM solution of cold ATP was “spiked” with [γ-^32P] ATP to produce a radioactivity of 1×10^5 to 1×10^6 c.p.m. per nmol.
1) The number of assay samples needed was determined based on, e.g., the following considerations: (i) each condition was assayed in duplicate; (ii) two controls containing peptide or protein substrate and ATP but no SIK were included to assess contamination by any free ATP not incorporated into substrate, alongside two controls lacking a peptide or protein substrate but containing ATP and SIK to correct for any incorporation of phosphate into the kinase itself (e.g., autophosphorylation); and (iii) a maximum of 40 samples were assayed manually at one time by a single person. Microcentrifuge tubes were label distinctly and were placed on ice.
4) Dilute the SIK in enzyme dilution buffer and place on ice.
5) Pipette 5 j±l of 10× concentrated assay buffer, 5 j±l peptide or protein substrate (the two “no-substrate” control tubes had 5 j±l water added instead of peptide or protein substrate), and 30 μl distilled water into each tube. Keep the tubes on ice.
6) Add 5 μl diluted SIK to each tube, except for the two “no-enzyme” control tubes, which had 5 μl enzyme dilution buffer added, and still keeping the tubes on ice. In some cases, premixed “cocktails” of assay components were prepared containing peptide or protein substrate, assay buffer, and distilled water to limit the number of additions to each assay tube. Each of steps 7 to 14 was done behind a plexiglass shield.
7) Insert each tube into the water bath at intervals of 15 s to allow the assay mixture to reach 30° C. Begin the SIK reactions by adding 5 μl of 1 mM [γ-^32P] ATP to each tube at intervals of 15 s. Close each tube, vortex for 1 s to mix the contents and immediately replace in a rack in the water bath. Incubate for 10 min at 30° C. […]

Test [1] has as its system IL-10 production by zymosan-stimulated BMDCs. Briefly: IL-10 up-regulation in zymosan-stimulated BMDCs (AlphaLISA/ELISA). Format: cell-based, mouse. Here is the method:
as §1
C57BL/6 mice were euthanized and bone marrow harvested from femurs and tibias as described previously (Graham D B, et al. (2007) An ITAM-signaling pathway controls cross-presentation of particulate but not soluble antigens in dendritic cells. The Journal of experimental medicine 204(12):2889-2897). BMDCs were differentiated DMEM supplemented with 2 mM GlutaMAX, 10% (vol/vol) FBS, penicillin, streptomycin and 2% mouse GM-CSF conditioned media derived from TOPO cells. Cultures were differentiated for 7 days and routinely analyzed for >90% CD11c (APC anti-CD11c clone HL3; BD Biosciences) positivity by flow cytometry before use in experiments. Lentiviral transduction of bone marrow cultures was conducted by addition of 293T culture supernatants containing lentiviral particles encoding the CREB dependent luciferase reporter construct or CRTC3 targeting or control shRNAs one day post-isolation. Stable integration of lentiviral shRNA constructs was selected by addition of puromycin (3 μg/mL) on day 4 post-transduction. After 2 days, stably transduced BMDCs were released from selection and used in subsequent assays. Unless otherwise indicated, cells were treated for 2 days with PGE2 (5 μM) or HG-9-91-01 (0.5 μM) or an equivalent concentration of DMSO (≤0.5%) and then stimulated for 18 hr with LPS (100 ng/mL), R848 (10 μg/mL) or zymosan (4 μg/mL).
BMDCs were seeded into black 384-well plates (Corning) at 20,000 cells/well in 40 μL complete DMEM using a Multidrop COMBI (Thermal Scientific) followed by incubation at 37° C. for 2 hr to allow for plate adherence. SIK inhibitors (100 nL/well) were pin-transferred from concentrated DMSO stocks using CyBi-Well Vario (CyBio) into duplicate plates. For each treatment plate, 32 out of 384 wells were pinned with DMSO as negative control and 32 out of 384 wells were pinned with PGE2 (5 μM final concentration). Two days after SIK inhibitor treatment, BMDCs were stimulated with zymosan (4 μg/mL final concentration) dispersed in culture medium (20 μL/well) using a Multidrop COMBI. After 18 hr, 5 μL of resulting supernatant was transferred from the culture plate to white 384-well AlphaLISA plates (Perkin Elmer) using a CyBi-Well Vario. IL-10 abundance in the supernatants was determined using an AlphaLISA assay (PerkinElmer) according to the manufacture's protocol and signal intensity measured using an EnVision multimode plate reader. SIK inhibitor activity was expressed as a % of the differences between the mean abundance of IL-10 in PGE2 versus DMSO wells on a per plate basis. Cell viability assays were conducted on the same tissue culture plates as the IL-10 assay. First media was removed and replaced by solution of 50% (vol/vol) CellTiter-Glo (Promega) in PBS. […]
Background: Alpha assays give light when donor and acceptor beads are brought close together.

[2] abbreviates: Mus musculus, BMDC, zymosan-stimulated BMDCs, read-out: IL-10 induction EC50.

Broadly, the IC50 is the concentration needed to halve the response being measured. One may read the EC50 as the concentration that produces a half-maximal response.

Where two headings read alike, the source gives them in different places.

T1 sequence (Q9H0K1 whole entry): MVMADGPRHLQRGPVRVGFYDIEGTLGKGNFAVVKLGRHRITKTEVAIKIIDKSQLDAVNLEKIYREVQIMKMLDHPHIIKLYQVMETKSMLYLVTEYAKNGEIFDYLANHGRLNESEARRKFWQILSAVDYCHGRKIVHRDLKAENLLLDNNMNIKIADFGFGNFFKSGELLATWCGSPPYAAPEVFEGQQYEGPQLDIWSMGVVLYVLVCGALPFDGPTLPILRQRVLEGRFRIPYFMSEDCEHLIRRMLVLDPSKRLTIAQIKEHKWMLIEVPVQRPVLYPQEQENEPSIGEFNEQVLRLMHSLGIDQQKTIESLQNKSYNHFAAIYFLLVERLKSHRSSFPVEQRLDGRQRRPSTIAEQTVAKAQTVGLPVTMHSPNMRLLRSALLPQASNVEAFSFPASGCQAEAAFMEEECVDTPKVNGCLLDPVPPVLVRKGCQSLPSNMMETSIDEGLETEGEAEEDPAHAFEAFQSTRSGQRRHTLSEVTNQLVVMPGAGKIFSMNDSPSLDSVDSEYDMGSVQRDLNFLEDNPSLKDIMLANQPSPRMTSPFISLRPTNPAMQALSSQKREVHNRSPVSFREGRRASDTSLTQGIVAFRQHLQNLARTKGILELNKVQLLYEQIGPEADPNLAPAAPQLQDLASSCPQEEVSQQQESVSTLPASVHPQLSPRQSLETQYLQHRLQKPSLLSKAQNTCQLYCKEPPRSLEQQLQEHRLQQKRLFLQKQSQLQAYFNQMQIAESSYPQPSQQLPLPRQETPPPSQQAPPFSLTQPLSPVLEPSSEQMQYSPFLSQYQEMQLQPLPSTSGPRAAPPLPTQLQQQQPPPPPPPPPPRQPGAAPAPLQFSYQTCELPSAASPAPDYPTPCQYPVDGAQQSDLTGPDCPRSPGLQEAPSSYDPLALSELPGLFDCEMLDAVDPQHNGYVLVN

Regarding `Cc1cccc(C)c1NC(=O)N1C/C=C\COc2cccc(c2)Nc2cc1ncn2` [I-1], on SIK2, the remaining activity at 0.1 µM is 10%, the remaining activity at 1 µM came out at 5% and the IC50 was 9.72 nM. In addition, in test [1] (setting [2]), the 50% effective concentration (EC50) came to 5620 nM.

For the compound `COc1ccc(N(C(=O)Nc2c(C)cccc2C)c2cc(Nc3ccc(N4CCN(C)CC4)cc3)ncn2)c(OC)c1` [HG-9-91-01], the “concentrations that suppressed/reduced zymosan-induced IL-10 production” value in test [1] (BMDCs) is reported as “greater than 1 μM”. For the same compound, the EC50 in test [1] (BMDCs pre-treated 2 days, zymosan 18 hr, ELISA, read-out: EC50 of potentiation of zymosan-induced IL-10 production) was around 200 nM.

Consider `CCN1CCN(c2ccc(Nc3cc(-n4ccnc4Nc4c(C)cccc4C)ncn3)cc2)CC1` [II-1, 6-(2-((2,6-dimethylphenyl)amino)-1H-imidazol-1-yl)-N-(4-(4-ethylpiperazin-1-yl)phenyl)pyrimidin-4-amine], for which, at SIK2, the remaining activity at 0.1 µM amounted to 37%, the remaining activity at 1 µM came to 9% and the IC50 is 65.1 nM. Besides, the 50% effective concentration (EC50) in test [1] (setting [2]) was found to be 1460 nM.
